{"source": "paper PMC7689089", "about": "“Regorafenib combined with PD1 blockade increases CD8 T-cell infiltration by inducing CXCL10 expression in hepatocellular carcinoma” (Journal for Immunotherapy of Cancer, 2020)", "key": {"RIL-175 cells": {"tested_on": "RIL-175 cells", "experiment": "CXCL10 secretion by RIL-175 cells in vitro (ELISA)", "format": "cell-based, mouse", "settings": "2μM for 36hr; ELISA; n=6", "source_text": "To determine if CXCL10 was produced by murine HCC cells in response to regorafenib treatment, we next cultured RIL-175 cells with various concentration of regorafenib in vitro and measured the CXCL10 levels by ELISA. […]\ntreated by regorafenib as standard of care (HCC) (using the DFCI Protocol No.: 13-416 “Collection of Specimens and Clinical Data for Patients with Known or Suspected Solid Tumors”, PI, Dr. Juric, MGH) or in a phase I clinical trial of regorafenib monotherapy in acute myeloid leukemia (AML) patients (ClinicalTrials.gov Identifier: NCT03042689, PI, Hobbs, MGH). Both protocols have been IRB approved, and written consent was obtained from all patients.\nProtein analyses. Western blotting was performed using antibodies against Stat1 (D1K9Y), phosphorylated (p)-Stat1 (Tyr701) (D4A7), Stat3 (79D7), p-Stat3 (Ser727) (Cell Signaling Technology, Danvers, MA), and IFN-γ (EPR1108) (Abcam, Cambridge, MA). Multiplexed protein array analysis was performed for protein extracts from whole tumors, using V-PLEX Proinflammatory Panel 1 Mouse Kit, V-PLEX Cytokine Panel 1 Mouse Kit and V-PLEX […] (Meso-Scale Discovery, Rockville, MD). For cell supernatant collection, 1x10^6 of RIL-175 cells were cultured in DMEM medium with 2% FBS and regorafenib was given in a various dose.\nSupernatant was collected after 36hr of incubation and multiplexed protein array analysis was done using the same kit above.\nFlow cytometry analysis. Tumor tissues were extracted from the mice, weighted and minced with a scalpel. Hank’s buffered salt solution (HBSS) with 1.5mg/ml of collagenase and hyaluronidase was added to the minced tissues and incubated for 30 min at 37°C. After incubation, digested tissues were passed through the 70μm cell strainer and washed with PBS with 2% BSA. After preparation, cells were suspended in 2ml of PBS with 2% BSA, then counted using a cell counting plate (Kova slide) (if the final concentration of cell exceeded 10^7 cells/ml, a dilution factor was applied). One hundred microliters of this suspension were used per subsequent flow cytometry staining. […]"}, "[1]": {"settings": "mouse, in vivo", "description": "From the orthotopic HCC and liver damage mouse models described above, blood samples were collected at 1, 4, 7 and 24 hours after once-daily oral administration of 5, 10 and 20 mg/kg regorafenib, respectively, for 5 days. Anti-PD1 antibody was given on days 1 and 4 with dose of 10 mg/kg by intraperitoneal injection. Blood samples were drawn from four to five animals per sampling time point. Regorafenib and its active metabolites M-2, M-4 and M-5 were analyzed in plasma samples using a validated bioanalytical liquid chromatography-tandem mass spectrometry.[25 33] Pharmacokinetic (PK) parameters were derived from the area under the plasma concentration versus time curve (AUC) using a non-compartmental analysis.\nIn addition, we evaluated PK parameters in HCC-bearing mice after regorafenib administration alone at doses of 5, 10 and 20 mg/kg or in combination with anti-PD1 therapy at the 10 mg/kg regorafenib dose for 5 days to achieve a steady state."}, "advanced HCC [2]": {"tested_on": "advanced HCC", "set-up": "method as in ref 4 5", "settings": "patients with advanced HCC; ref 4 5; cited from earlier work"}, "advanced HCC [3]": {"tested_on": "advanced HCC", "set-up": "method as in ref 14 15", "settings": "previously treated patients with advanced HCC; phase I/II trial data; ref 14 15; cited from earlier work"}}, "note": "Where two headings read alike, the source gives them in different places."}
{"molecule": "NS(=O)(=O)c1cccc2c1C(=O)c1cccc(O)c1C2=O", "note": "[LLL12]", "values": [{"measurement": "CXCL10 expression in RIL-175 cells", "setting": "RIL-175 cells", "result": "significantly increased"}]}
{"molecule": "NC(=O)c1cc(Oc2ccc(NC(=O)Nc3ccc(Cl)c(C(F)(F)F)c3)c(F)c2)ccn1", "note": "[M-4]", "values": [{"measurement": "Plasma Tmax", "setting": "[1]", "result": 7, "unit": "h"}, {"measurement": "Tumor Tmax", "setting": "[1]", "result": 7, "unit": "h"}, {"measurement": "Plasma AUC", "setting": "[1]; po, 5 mg/kg", "result": 363, "unit": "ng·h/mL"}, {"measurement": "Plasma AUCnorm", "setting": "[1]; po, 5 mg/kg", "result": 0.0749, "unit": "kg·h/L"}, {"measurement": "Plasma Cmax", "setting": "[1]; po, 5 mg/kg", "result": 21.7, "unit": "ng/mL"}, {"measurement": "Plasma Tmax", "setting": "[1]; po, 5 mg/kg", "result": 7, "unit": "h"}, {"measurement": "Tumor AUC", "setting": "[1]; po, 5 mg/kg", "result": 1040, "unit": "ng·h/mL"}, {"measurement": "Tumor AUCnorm", "setting": "[1]; po, 5 mg/kg", "result": 0.209, "unit": "kg·h/L"}, {"measurement": "Tumor Cmax", "setting": "[1]; po, 5 mg/kg", "result": 52.8, "unit": "µg/kg"}, {"measurement": "Tumor Tmax", "setting": "[1]; po, 5 mg/kg", "result": 4, "unit": "h"}, {"measurement": "Plasma AUC", "setting": "[1]; po, 10 mg/kg", "result": 663, "unit": "ng·h/mL"}, {"measurement": "Plasma AUCnorm", "setting": "[1]; po, 10 mg/kg", "result": 0.0684, "unit": "kg·h/L"}, {"measurement": "Plasma Cmax", "setting": "[1]; po, 10 mg/kg", "result": 40.5, "unit": "ng/mL"}, {"measurement": "Plasma Tmax", "setting": "[1]; po, 10 mg/kg", "result": 7, "unit": "h"}, {"measurement": "Tumor AUC", "setting": "[1]; po, 10 mg/kg", "result": 2100, "unit": "ng·h/mL"}, {"measurement": "Tumor AUCnorm", "setting": "[1]; po, 10 mg/kg", "result": 0.210, "unit": "kg·h/L"}, {"measurement": "Tumor Cmax", "setting": "[1]; po, 10 mg/kg", "result": 117, "unit": "µg/kg"}, {"measurement": "Tumor Tmax", "setting": "[1]; po, 10 mg/kg", "result": 7, "unit": "h"}, {"measurement": "Plasma AUC", "setting": "[1]; po, 20 mg/kg", "result": 1480, "unit": "ng·h/mL"}, {"measurement": "Plasma AUCnorm", "setting": "[1]; po, 20 mg/kg", "result": 0.0763, "unit": "kg·h/L"}, {"measurement": "Plasma Cmax", "setting": "[1]; po, 20 mg/kg", "result": 124, "unit": "ng/mL"}, {"measurement": "Plasma Tmax", "setting": "[1]; po, 20 mg/kg", "result": 7, "unit": "h"}, {"measurement": "Tumor AUC", "setting": "[1]; po, 20 mg/kg", "result": 3780, "unit": "ng·h/mL"}, {"measurement": "Tumor AUCnorm", "setting": "[1]; po, 20 mg/kg", "result": 0.189, "unit": "kg·h/L"}, {"measurement": "Tumor Cmax", "setting": "[1]; po, 20 mg/kg", "result": 214, "unit": "µg/kg"}, {"measurement": "Tumor Tmax", "setting": "[1]; po, 20 mg/kg", "result": 7, "unit": "h"}]}
{"molecule": "CNC(=O)c1cc(Oc2ccc(NC(=O)Nc3ccc(Cl)c(C(F)(F)F)c3)cc2)ccn1", "note": "[Sorafenib]", "values": [{"measurement": "OS benefit over placebo", "setting": "advanced HCC [2]", "result": "approximately 3 months"}]}
{"molecule": "nivolumab: anti-PD1 antibody", "values": [{"measurement": "Responses", "setting": "advanced HCC [3]", "result": "14%–31%"}]}
{"molecule": "pembrolizumab: anti-PD1 antibody", "values": [{"measurement": "Responses", "setting": "advanced HCC [3]", "result": "14%–31%"}]}
